Source: publication PMC7180842, “Efficacy of Topical Treatment with (−)-Epigallocatechin Gallate, A Green Tea Catechin, in Mice with Cutaneous Leishmaniasis” (Molecules, 2020)
≈ marks a conversion by molar mass, not a printed value.

Columns and labels:
[1] = test system: promastigotes of L. (L.) amazonensis; parameters: method as in earlier work; details: cited from earlier work
[2] = test system: promastigotes of L. (V.) braziliensis; parameters: method as in earlier work; details: cited from earlier work
[3] = Macrophage cytotoxicity screening (MTT assay); assay type: cell-based; details: human, THP1 cells differentiated to macrophages
Description: The cytotoxicity of EGCG, EGC, GCG and GC was evaluated in a human monocytic cell line derived from an acute monocytic leukemia patient (THP1). The cells (3 x 10^4/150 µL) were first differentiated to macrophages with 10 ng/mL of phorbol myristate acetate for 24 h at 37 °C in a 5% CO2 95% air mixture. […] The controls were incubated with RPMI 1640 medium (Gibco, Grand Island, NY, USA). The viability of the macrophages was determined by the MTT assay (Nacalai tesque, Kyoto, Japan). Briefly, 50 μL of MTT (2 mg/mL) was added to each well and, after 4 h of incubation at 37 °C, the reaction was stopped dissolving the formazan crystals with 100 μL/well of dimethyl sulfoxide (DMSO). The relative amount of formazan produced by viable macrophages was determined using a spectrophotometer at 570 nm. The percentage of viable cells was calculated according to the formula: OD treated culture–OD blank x 100/OD control–OD blank as was described previously. The CC50 was calculated for each compound as the concentration of compound that reduces cell growth by 50%.
(§1) The GraphPad Prism 5.0 software (GraphPad Software Inc., San Diego, CA, USA) was employed to carry out calculations of the IC50 and CC50 values by a nonlinear regression. Multiple comparisons of lesions’ sizes between groups were made with a one-way analysis of variance (ANOVA) followed by Tukey test. The statistical analysis of the parasite burden data obtained by the limiting dilution assay was done using ELIDA software, which analyses data through the Poisson distribution and by the X^2 test. p < 0.05 was considered significant. The data are representative of two separate experiments in vivo.

[4] = test system: intracellular amastigotes of L. (L.) amazonensis; experiment: In vitro antiamastigote activity in infected THP1-derived macrophages; assay type: cell-based, Leishmania (Leishmania) amazonensis; details: for SI (selectivity index, ratio CC50 THP1/IC50 Leishmania): CC50 THP1/IC50 intracellular amastigotes; for SI (selectivity index, ratio CC50 THP1/IC50 Leishmania) / IC50: 48 h; for IC50: Leishmania amazonensis, Macrophage; for IC50 / Intracellular Amastigotes IC50: macrophages infected with L. (L.) amazonensis, 48 h of treatment, 34 °C
Description: THP1 cells (2 × 10^5/mL) were differentiated to macrophages with 10 ng/mL of phorbol myristate acetate and placed in Lab-Tek eight chamber slides for 24 h at 37 °C in a 5% CO2 95% air mixture. Adherent macrophages were infected with L. (L.) amazonensis at a ratio of four parasites per macrophage and incubated at 34 °C in a 5% CO2 95% air mixture during 24 h. After infection, the cells were washed with pre-warmed PBS to remove free parasites. A new medium with different concentrations of EGCG, EGC, GCG and GC (2.3 to 130 µg/mL) and Gl (2.5 to 80 µg Sb^v/mL) was added to each well. The positive controls were infected cells cultured under the presence of complete RPMI-1640 medium. The chambers were returned to the CO2 incubator for an additional 48 h at 34 °C, 5% CO2 [17]. The cells were stained with Diff Quik (Biopur S.R.L., Rosario, Argentina), and the results were expressed as the concentration of compound to inhibit the 50% of the growth (IC50) of the intracellular amastigotes.
as §1

[5] = test system: intracellular amastigotes of L. (L.) amazonensis; parameters: method as in PMID 22735546; details: infected macrophage cultures incubated at 37 °C; cited from earlier work
L. (L.) amazonensis = experiment: In vivo cutaneous leishmaniasis model, infected ear dermis of BALB/c mice; details: 18 days; for Parasite burden inhibition: once a day, six times a week, from week six postinfection, vs control group; for Lesion size: week 10, vs control group, p < 0.05
Description: Female BALB/c mice of six weeks old (weight, 20 to 25 g) were randomly separated into three groups of five animals and were inoculated by intradermal via in their right ear with 5 × 10^3 (20 µL) infective promastigotes of L. (L.) amazonensis (late log phase of growth). The animals were housed in groups of five in metal cages under a controlled environmental condition (12:12 h light/dark cycle and 23 °C room temperature) with food and water ad libitum.
At week six postinfection, mice received the treatments as follow: group 1, treated with EGCG in USP hydrophilic ointment (15%), group 2, treated with 120 mg Sb^v/kg/d of Gl administered by intraperitoneal route, and group 3, control mice (without treatment). EGCG was uniformly mixed in USP hydrophilic cream (Yoshida Pharmaceutical Co., Saitama, Japan) (15% w/w) and was topically applied (20 mg/lesion). EGCG ointment was prepared daily. The treatments were given during 18 days, once a day, six times a week, until the end of the treatments (9th week). The efficacy of treatments was determined by measuring the lesions’ sizes (mm^2) with a digital caliper weekly (150 mm; Digimess) and by quantifying the parasite burden with the limit dilution assay as was described previously.
as §1

[6] = test system: intracellular amastigotes of L. (V.) braziliensis; parameters: method as in PMID 25144225; details: infected macrophage cultures incubated at 37 °C; cited from earlier work
L. (L.) donovani = test system: L. (L.) donovani; parameters: method as in PMID 16569852; details: cited from earlier work
L. (V.) braziliensis = test system: L. (V.) braziliensis; parameters: method as in PMID 24106750, PMID 22735546; details: EGCG oral treatment, BALB/c mice; cited from earlier work
[7] = intraperitoneal 120 mg Sb^v/kg/d

Compound | Leishmanicidal activity / growth of promastigotes [1] | Leishmanicidal activity / growth of promastigotes [2] | CC50 at 48 h [3] | SI (selectivity index, ratio CC50 THP1/IC50 Leishmania) [4] | IC50 [4] | also measured
Oc1cc(O)c2c(c1)O[C@H](c1ccc(O)c(O)c1)[C@@H](O)C2 [(+)-catechin] | did not inhibit the growth | did not inhibit the growth | – | – | – | –
O=C(O[C@@H]1Cc2c(O)cc(O)cc2O[C@H]1c1ccc(O)c(O)c1)c1cc(O)c(O)c(O)c1 [(−)-catechin gallate] | did not inhibit the growth | did not inhibit the growth | – | – | – | –
Oc1cc(O)c2c(c1)O[C@H](c1ccc(O)c(O)c1)[C@H](O)C2 [(−)-epicatechin] | did not inhibit the growth | did not inhibit the growth | – | – | – | –
Oc1cc(O)c2c(c1)O[C@H](c1cc(O)c(O)c(O)c1)[C@H](O)C2 [EGC, (−)-epigallocatechin] | leishmanicidal activity | leishmanicidal activity | 121 ± 20 µg/mL (≈ 394 µM) | ≥2.7 | < 59.6 µg/mL | SI (selectivity index, ratio CC50 THP1/IC50 Leishmania) ([4]; listed as (−)-epigallocatechin): > 1; Intracellular Amastigotes IC50 [4]: ≥44.3 µg/mL
O=C(O[C@@H]1Cc2c(O)cc(O)cc2O[C@@H]1c1cc(O)c(O)c(O)c1)c1cc(O)c(O)c(O)c1 [EGCG, (−)-Epigallocatechin gallate] | leishmanicidal activity | leishmanicidal activity | 88.9 ± 21.9 µg/mL (≈ 194 µM) | 1.5 | < 59.6 µg/mL | IC50 against intracellular amastigotes [5]: 0.74 µg/mL (≈ 1.61 µM); Parasite burden inhibition (L. (L.) amazonensis; topical 15% EGCG in USP hydrophilic ointment, 20 mg/lesion): 80.4%; Lesion size (L. (L.) amazonensis; topical 15% EGCG): significant reduction of the lesion size; SI (selectivity index, ratio CC50 THP1/IC50 Leishmania) ([4]; listed as (−)-Epigallocatechin gallate): > 1; Intracellular Amastigotes IC50 [4]: 59.6 ± 9.3 µg/mL; IC50 against intracellular amastigotes [6]: 1.57 µg/mL (≈ 3.43 µM); IC50 against L. (L.) donovani (L. (L.) donovani): 19.1 µg/mL (≈ 41.7 µM); Parasite burden inhibition (L. (V.) braziliensis): 92.1%
Oc1cc(O)c2c(c1)O[C@@H](c1cc(O)c(O)c(O)c1)[C@H](O)C2 [GC, (−)-gallocatechin] | leishmanicidal activity | leishmanicidal activity | 115 ± 37.1 µg/mL (≈ 376 µM) | 1.2 | 93.5 ± 5 µg/mL (≈ 305 µM) | –
O=C(O[C@@H]1Cc2c(O)cc(O)cc2O[C@H]1c1cc(O)c(O)c(O)c1)c1cc(O)c(O)c(O)c1 [GCG, (−)-gallocatechin gallate] | leishmanicidal activity | leishmanicidal activity | 94.9 ± 11.8 µg/mL (≈ 207 µM) | 1.4 | 67.5 ± 9.5 µg/mL (≈ 147 µM) | IC50 against L. (L.) donovani (L. (L.) donovani): 8.9 µg/mL (≈ 19.4 µM)
Meglumine antimoniate [reference compound] | – | – | – | – | – | Parasite burden inhibition (L. (L.) amazonensis; [7]): 85.1%; Lesion size (L. (L.) amazonensis; [7]): reduced the lesion size
